According to ChEMBL document CHEMBL1151914, “3D-QSAR studies of 2,2-diphenylpropionates to aid discovery of novel potent muscarinic antagonists” (Bioorg Med Chem, 2009):

Test: Inhibition of [3H]NMS binding to muscarinic receptor in mouse N4TG1 neuroblastoma cells

**Q.** For `CN1CCC(OC(=O)C(C)(c2ccccc2)c2ccccc2)C1` (stereo not drawn), which pKi is on record?
**A.** The pKi was 7.8.

**Q.** With `CN1CC2CC1C[C@H](OC(=O)C(C)(c1ccccc1)c1ccccc1)C2` (stereo partly drawn) as the molecule, how does the pKi read?
**A.** Its pKi is 8.3.

**Q.** Which pKi does the source give for `CCN(CC)CCOC(=O)C(C)(c1ccccc1)c1ccccc1` [APROFENE] here?
**A.** Its pKi is 8.2.

**Q.** Which pKi does the source give for `C[N+](C)(C)CC#CC(O)(c1cccs1)C1CCCC1` (stereo not drawn) here?
**A.** The pKi was 7.1.

**Q.** Which pKi does the source give for `CN1CCC(OC(=O)C(C)(c2ccccc2)c2ccccc2)CC1` here?
**A.** Its pKi is 8.8.

**Q.** For `CCN1CCC(OC(=O)C(C)(c2ccccc2)c2ccccc2)CC1`, which pKi is on record?
**A.** Its pKi is 9.

**Q.** Which pKi does the source give for `CN1[C@@H]2CC[C@H]1C[C@@H](OC(=O)C(CO)c1ccccc1)C2` (stereo partly drawn) [ATROPINE] here?
**A.** The pKi was 8.4.

**Q.** With `CN1CCCCC1COC(=O)C(C)(c1ccccc1)c1ccccc1` (stereo not drawn) as the molecule, how does the pKi read?
**A.** Its pKi is 6.8.

**Q.** With `CCN1CCC(COC(=O)C(C)(c2ccccc2)c2ccccc2)CC1` as the molecule, how does the pKi read?
**A.** Its pKi is 6.9.

**Q.** For `CC[N+](C)(CC)CC(=O)Nc1ccc(Cl)c(Cl)c1`, which pKi is on record?
**A.** Its pKi is greater than 3.33.

**Q.** For `CC(C(=O)OCCN1CCCCC1)(c1ccccc1)c1ccccc1`, which pKi is on record?
**A.** Its pKi is 8.2.

**Q.** With `C[n+]1cscc1C(C)(C)OC(=O)c1ccccc1` as the molecule, how does the pKi read?
**A.** The pKi was 5.5.

**Q.** Which pKi does the source give for `CC(C)N(COC(=O)c1ccc(N)cc1)C(C)C` here?
**A.** Its pKi is 5.3.

**Q.** With `C[N+](C)(C)CCOC(=O)C(c1ccccc1)c1ccccc1` as the molecule, how does the pKi read?
**A.** Its pKi is 7.1.

**Q.** For `CCN1CCCC(OC(=O)C(C)(c2ccccc2)c2ccccc2)C1` (stereo not drawn), which pKi is on record?
**A.** Its pKi is 6.3.

**Q.** For `CN1CCCC1CCOC(=O)C(C)(c1ccccc1)c1ccccc1` (stereo not drawn), which pKi is on record?
**A.** Its pKi is 8.

**Q.** For `CN1C2CC[C@H]1C[C@@H](OC(=O)C(C)(c1ccccc1)c1ccccc1)C2`, which pKi is on record?
**A.** Its pKi is 8.4.

**Q.** For `CN1CCC(COC(=O)C(C)(c2ccccc2)c2ccccc2)CC1`, which pKi is on record?
**A.** Its pKi is 7.7.

**Q.** With `CC(C(=O)OCCN1CCCC1)(c1ccccc1)c1ccccc1` as the molecule, how does the pKi read?
**A.** The pKi was 8.2.

**Q.** With `CN1CCC2CC1C[C@@H](OC(=O)C(C)(c1ccccc1)c1ccccc1)C2` (stereo partly drawn) as the molecule, how does the pKi read?
**A.** The pKi was 8.3.

**Q.** With `CN1CCCC(COC(=O)C(C)(c2ccccc2)c2ccccc2)C1` (stereo not drawn) as the molecule, how does the pKi read?
**A.** The pKi was 7.8.

**Q.** With `CC[N+]1(CCOC(=O)C(CO)c2ccccc2)CCCCC1` (stereo not drawn) as the molecule, how does the pKi read?
**A.** Its pKi is 8.7.

**Q.** For `CN1CCC(OC(=O)C(CO)c2ccc(C(F)(F)F)cc2)CC1` (stereo not drawn), which pKi is on record?
**A.** The pKi was 7.7.
